In patent US9133163B2, “Dihydropyrazole GPR40 modulators” (Bristol-Myers Squibb Company, priority 2012, dated 2015):

Biological target: hGPR40 (Homo sapiens, UniProt O14842)
Assay: FDSS-based intracellular calcium assay
Assay type: cell-based
Set-up: 3xFLAG; expressed in transfected cells
Details: intracellular Ca2+ response, cells expressing GPR40
Description: FDSS-Based Intracellular Calcium Assay
Compounds are dissolved in DMSO and diluted to desired concentrations with assay buffer and added to the cells as 3× solution (20 μL per well). Run fluorescence/luminescence reader FDSS (Hamamatsu) to read intracellular Ca^2+ response.

hGPR40, sequence (O14842 whole entry): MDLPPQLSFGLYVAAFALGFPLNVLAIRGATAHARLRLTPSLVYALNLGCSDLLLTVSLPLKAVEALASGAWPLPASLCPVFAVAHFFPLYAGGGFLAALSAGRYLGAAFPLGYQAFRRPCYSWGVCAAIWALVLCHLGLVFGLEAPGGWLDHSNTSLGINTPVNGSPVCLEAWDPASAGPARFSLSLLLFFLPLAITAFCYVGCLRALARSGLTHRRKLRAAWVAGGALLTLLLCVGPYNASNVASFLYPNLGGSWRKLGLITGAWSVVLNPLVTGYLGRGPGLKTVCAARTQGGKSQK

EC50 [nM]	Structure (SMILES)
796	COc1cc(F)c(F)c(N2CCC(Oc3ccc(N4N=C(C(F)(F)F)[C@@H](C)[C@@H]4CC(=O)O)cc3)C(C)C2)c1 (single isomer, unassigned) [Example 8 (Isomer 1)]
237	COc1cc(F)c(F)c(N2CCC(Oc3ccc(N4N=C(C(F)(F)F)[C@@H](C)[C@@H]4CC(=O)O)cc3)C(C)C2)c1 (single isomer, unassigned) [Example 8 (Isomer 2)]
1200	CCOc1cc(F)c(F)c(N2CCC(Oc3ccc(N4N=C(C(F)(F)F)[C@@H](C)[C@@H]4CC(=O)O)cc3)C(C)C2)c1 (single isomer, unassigned) [Example 10 (Isomer 1)]
315	CCOc1cc(F)c(F)c(N2CCC(Oc3ccc(N4N=C(C(F)(F)F)[C@@H](C)[C@@H]4CC(=O)O)cc3)C(C)C2)c1 (single isomer, unassigned) [Example 10 (Isomer 2)]
2040	COc1ccc(F)c(N2CCC(Oc3ccc(N4N=C(c5ncccn5)C(C)C4CC(=O)O)cc3)CC2)c1 (single isomer, unassigned) [Example 22, Isomer 1, 2-(1-(4-((1-(2-Fluoro-5-methoxyphenyl)piperidin-4-yl)oxy)phenyl)-4-methyl-3-(pyrimidin-2-yl)-4,5-dihydro-1H-pyrazol-5-yl)acetic acid]
5570	COc1ccc(F)c(N2CCC(Oc3ccc(N4N=C(c5ncccn5)C(C)C4CC(=O)O)cc3)CC2)c1 (single isomer, unassigned) [Example 22, Isomer 2, 2-(1-(4-((1-(2-Fluoro-5-methoxyphenyl)piperidin-4-yl)oxy)phenyl)-4-methyl-3-(pyrimidin-2-yl)-4,5-dihydro-1H-pyrazol-5-yl)acetic acid]
1900	CCOc1ccc(F)c(N2CCC(Oc3ccc(N4N=C(C(F)(F)F)[C@@H](C)[C@@H]4CC(=O)O)cc3)C(C(C)C)C2)c1 (single isomer, unassigned) [Example 26 (Isomer 1)]
82	CCOc1ccc(F)c(N2CCC(Oc3ccc(N4N=C(C(F)(F)F)[C@@H](C)[C@@H]4CC(=O)O)cc3)C(C(C)C)C2)c1 (single isomer, unassigned) [Example 26 (Isomer 2)]
73	CCC1C(C(F)(F)F)=NN(c2ccc(OC3CCN(c4cc(OC)ncc4Cl)CC3C)cc2)C1CC(=O)O (single isomer, unassigned) [Example 86, Isomer 1, 2-(1-(4-((1-(5-Chloro-2-methoxypyridin-4-yl)-3-methylpiperidin-4-yl)oxy)phenyl)-4-ethyl-3-(trifluoromethyl)-4,5-dihydro-1H-pyrazol-5-yl)acetic acid]
599	CCC1C(C(F)(F)F)=NN(c2ccc(OC3CCN(c4cc(OC)ncc4Cl)CC3C)cc2)C1CC(=O)O (single isomer, unassigned) [Example 86, Isomer 2, 2-(1-(4-((1-(5-Chloro-2-methoxypyridin-4-yl)-3-methylpiperidin-4-yl)oxy)phenyl)-4-ethyl-3-(trifluoromethyl)-4,5-dihydro-1H-pyrazol-5-yl)acetic acid]
1930	CCC1C(C(F)(F)F)=NN(c2ccc(OC3CCN(c4cc(OC)ncc4Cl)CC3C)cc2)C1CC(=O)O (single isomer, unassigned) [Example 86, Isomer 3, 2-(1-(4-((1-(5-Chloro-2-methoxypyridin-4-yl)-3-methylpiperidin-4-yl)oxy)phenyl)-4-ethyl-3-(trifluoromethyl)-4,5-dihydro-1H-pyrazol-5-yl)acetic acid]
7960	COc1ccc(F)c(N2CCC(Oc3ccc(N4N=C(C(F)(F)F)[C@@H](CC(C)C)[C@@H]4CC(=O)O)cc3)CC2)c1 (single isomer, unassigned) [Example 89, Isomer 1]
390	COc1ccc(F)c(N2CCC(Oc3ccc(N4N=C(C(F)(F)F)[C@@H](CC(C)C)[C@@H]4CC(=O)O)cc3)CC2)c1 (single isomer, unassigned) [Example 89, Isomer 2]
1630	COc1ccc(F)c(N2CCC(Oc3ccc(N4N=C(C(F)(F)F)[C@@H](CC5CC5)[C@@H]4CC(=O)O)cc3)CC2)c1 (single isomer, unassigned) [Example 90, Isomer 1]
156	COc1ccc(F)c(N2CCC(Oc3ccc(N4N=C(C(F)(F)F)[C@@H](CC5CC5)[C@@H]4CC(=O)O)cc3)CC2)c1 (single isomer, unassigned) [Example 90, Isomer 2]
374	CC(C)Oc1ccc(F)c(N2CCC(Oc3ccc(N4N=C(C(F)(F)F)[C@@H](C)[C@@H]4CC(=O)O)cc3)CC2)c1 [Example 9, 2-((4S,5S)-1-(4-((1-(2-Fluoro-5-isopropoxyphenyl)piperidin-4-yl)oxy)phenyl)-4-methyl-3-(trifluoromethyl)-4,5-dihydro-1H-pyrazol-5-yl)acetic acid]
680	COc1ccc(C#N)c(N2CCC(Oc3ccc(N4N=C(C(F)(F)F)[C@@H](C)[C@@H]4CC(=O)O)cc3)CC2)c1 [Example 21, 2-((4S,5S)-1-(4-((1-(2-Cyano-5-methoxyphenyl)piperidin-4-yl)oxy)phenyl)-4-methyl-3-(trifluoromethyl)-4,5-dihydro-1H-pyrazol-5-yl)acetic acid]
1200	CCOc1ccc(F)c(N2CC[C@H](Oc3ccc(N4N=C(C(F)(F)F)[C@@H](C)[C@@H]4CC(=O)O)cc3)[C@@H](C)C2)c1 [Example 30, 2-((4S,5S)-1-(4-(((3S,4S)-1-(5-Ethoxy-2-fluorophenyl)-3-methylpiperidin-4-yl)oxy)phenyl)-4-methyl-3-(trifluoromethyl)-4,5-dihydro-1H-pyrazol-5-yl)acetic acid]
448	C[C@@H]1C(C(F)(F)F)=NN(c2ccc(OC3CCN(c4ccccc4Cl)CC3)cc2)[C@H]1CC(=O)O [Example 37, 2-((4S,5S)-1-(4-((1-(2-Chlorophenyl)piperidin-4-yl)oxy)phenyl)-4-methyl-3-(trifluoromethyl)-4,5-dihydro-1H-pyrazol-5-yl)acetic acid]
475	C[C@@H]1C(C(F)(F)F)=NN(c2ccc(OC3CCN(c4cc(F)ccc4F)CC3)cc2)[C@H]1CC(=O)O [Example 38, 2-((4S,5S)-1-(4-((1-(2,5-Difluorophenyl)piperidin-4-yl)oxy)phenyl)-4-methyl-3-(trifluoromethyl)-4,5-dihydro-1H-pyrazol-5-yl)acetic acid]
498	Cc1ccccc1N1CCC(Oc2ccc(N3N=C(C(F)(F)F)[C@@H](C)[C@@H]3CC(=O)O)cc2)CC1 [Example 39, 2-((4S,5S)-4-Methyl-1-(4-((1-(o-tolyl)piperidin-4-yl)oxy)phenyl)-3-(trifluoromethyl)-4,5-dihydro-1H-pyrazol-5-yl)acetic acid]
628	C[C@@H]1C(C(F)(F)F)=NN(c2ccc(OC3CCN(c4ncccc4F)CC3)cc2)[C@H]1CC(=O)O [Example 41, 2-((4S,5S)-1-(4-((1-(3-Fluoropyridin-2-yl)piperidin-4-yl)oxy)phenyl)-4-methyl-3-(trifluoromethyl)-4,5-dihydro-1H-pyrazol-5-yl)acetic acid]

Structure (SMILES)	EC50 [nM]
CCOc1ccc(F)c(N2CCC(Oc3ccc(N4N=C(C(F)(F)F)[C@@H](C)[C@@H]4CC(=O)O)cc3)C(CC)C2)c1 (single isomer, unassigned) [Example 25 (Isomer 1)]	1020
COc1ccc(F)c(N2CCC(Oc3ccc(N4N=C(C(F)(F)F)[C@@H](C)[C@@H]4CC(=O)O)cc3)C(F)C2)c1 (single isomer, unassigned) [Example 57 (Isomer 1)]	292
COc1ccc(F)c(N2CCC(Oc3ccc(N4N=C(C(F)(F)F)[C@@H](C)[C@@H]4CC(=O)O)cc3)C(F)C2)c1 (single isomer, unassigned) [Example 57 (Isomer 2)]	119
COc1ccc(F)c(N2CCC(Oc3ccc(N4N=C(C(F)(F)F)[C@@H](C)[C@@H]4CC(=O)O)cc3)C(F)C2)c1 (single isomer, unassigned) [Example 57 (Isomer 3)]	716
CC[C@@H]1C(C(F)(F)F)=NN(c2ccc(OC3CCN(c4cc(OC)ccc4F)CC3)cc2)[C@H]1CC(=O)O (single isomer, unassigned) [Example 88, Isomer 2]	7450
COc1cc(N2CCC(Oc3ccc(N4N=C(C(F)(F)F)[C@@H](C)[C@@H]4CC(=O)O)cc3)C(F)C2)c(Cl)cn1 (single isomer, unassigned) [Example A1, Isomer 1]	184
COc1cc(N2CCC(Oc3ccc(N4N=C(C(F)(F)F)[C@@H](C)[C@@H]4CC(=O)O)cc3)C(F)C2)c(Cl)cn1 (single isomer, unassigned) [Example A1, Isomer 2]	218
CC(C)COc1cc(F)c(F)c(N2CCC(Oc3ccc(N4N=C(C(F)(F)F)[C@@H](C)[C@@H]4CC(=O)O)cc3)CC2)c1 [Example 18, 2-((4S,5S)-1-(4-((1-(2,3-Difluoro-5-isobutoxyphenyl)piperidin-4-yl)oxy)phenyl)-4-methyl-3-(trifluoromethyl)-4,5-dihydro-1H-pyrazol-5-yl)acetic acid]	4760
CCOc1ccc(F)c(N2CCC(Oc3ccc(N4N=C(C(F)(F)F)[C@@H](C)[C@@H]4CC(=O)O)cc3)CC2)c1 [Example 32, 2-((4S,5S)-1-(4-((1-(5-Ethoxy-2-fluorophenyl)piperidin-4-yl)oxy)phenyl)-4-methyl-3-(trifluoromethyl)-4,5-dihydro-1H-pyrazol-5-yl)acetic acid]	217
COc1ccc(Cl)c(N2CCC(Oc3ccc(N4N=C(C(F)(F)F)[C@@H](C)[C@@H]4CC(=O)O)cc3)CC2)c1 [Example 33, 2-((4S,5S)-1-(4-((1-(2-Chloro-5-methoxyphenyl)piperidin-4-yl)oxy)phenyl)-4-methyl-3-(trifluoromethyl)-4,5-dihydro-1H-pyrazol-5-yl)acetic acid]	103
C[C@@H]1C(C(F)(F)F)=NN(c2ccc(OC3CCN(c4cc(Cl)ccc4Cl)CC3)cc2)[C@H]1CC(=O)O [Example 35, 2-((4S,5S)-1-(4-((1-(2,5-Dichlorophenyl)piperidin-4-yl)oxy)phenyl)-4-methyl-3-(trifluoromethyl)-4,5-dihydro-1H-pyrazol-5-yl)acetic acid]	254
